Laboratory results reported in patent publication US20110300222A1, “LUMINESCENT POROUS SILICON NANOPARTICLES, METHODS OF MAKING AND USING SAME” (THE REGENTS OF THE UNIVERSITY OF CALIFORNIA, priority 2009, published 2011).

Key:
[1] = in ethanol; cited from earlier work
[2] = 25° C.; cited from earlier work
[3] = In vivo toxicity (body mass, histology of kidney, liver, spleen); design: species or system mouse; conditions: mice n=3, 2 mgDOX/kg i.v., period of 3 weeks
Protocol: In vivo degradation, toxicity, and circulation. All animal work was performed in accordance with the institutional animal protocol guidelines in place at the Burnham Institute for Medical Research, and it was reviewed and approved by the Institute's Animal Research Committee. […] For in vivo degradation studies, the mice were sacrificed 1 day, 1 week and 4 weeks after injection, and the brain, heart, kidney, liver, lung, and spleen were collected. The tissues were weighed, digested, and then analyzed for silicon content using ICP-OES. For the in vivo toxicity studies, the mass of each mouse was monitored for 4 weeks after injection and compared with control mice (PBS-injected). The sections of kidney, liver, and spleen tissues harvested from the mice 1 day and 4 weeks after injection were stained with haematoxylin and eosin and then examined by a pathologist.
To examine preliminary in vivo toxicity, body mass of the mice was monitored every 3 days over a period of 3 weeks.

[4] = Biodistribution of DOX in mouse organs (DOX fluorescence); assay type: in vivo; conditions: mice n=3, 24 h after single i.v. injection, 2 mgDOX/kg
Protocol: To determine biodistribution of free DOX and DOX-LPSiNP in mouse, the organs (liver, spleen, kidney, lung, heart, and brain) were collected 24 h after injection, weighed, homogenized in 1.5 mL of 0.3 M HCl 70% ethanol solution, and further incubated in the same solution overnight to extract DOX molecules from the organs and DOX-LPSiNP. The homogenized solution was spun down at 10,000 rpm for 10 min and the supernatant was only used to measure the DOX fluorescence. The DOX fluorescence (λex=480nm and λem=590 nm) in each tissue was quantified as % injected dose (% ID) per gram of wet tissue.

For `O=C(O)c1ccccc1C1=c2cc3c4c(c2Oc2c1cc1c5c2CCCN5CCC1)CCC[N+]=4CCC3.[Cl-]` [Rhodamine 101], the “quantum yield of standard” value [1] is listed as 100%.

For `OB(O)O` [boric acid], the pKa [2] is listed as 9.14.

For `COc1cccc2c1C(=O)c1c(O)c3c(c(O)c1C2=O)C[C@@](O)(C(=O)CO)C[C@@H]3O[C@H]1C[C@H](N)[C@H](O)[C@H](C)O1` [free DOX, doxorubicin], the “body mass (weight) change vs PBS control” value [3] was “no statistically significant difference” and the “biodistribution of DOX” value [4] was “accumulated in kidney, lung, and heart”.
